Source: publication PMC9114338 (Scientific Reports, 2022)
Where two headings read alike, the source gives them in different places. Blank lines part the entries; values can stand above or below the molecule they belong to.

Key:
[1] = MALDI imaging mass spectrometry of dermal tissues adjacent to the implant; type: in vivo, C57BL/6 J mice; details: for Detection by MALDI-IMS in dermal tissue samples during implant TAF delivery: all medicated specimens; for Spatial distribution in dermal tissue sections (MALDI-IMS): high-releasing (0.58 mg d^-1) implants, D3–D28; for MALDI-IMS signal and localization with implant in situ: low-releasing (0.23 mg d^-1) implants, Day 14, 100 µm resolution
Method: The used implants, the surrounding capsule, and the encasing dermal tissue were removed as a block in accordance with ISO 10993-6 guidelines, processed and stored, as described elsewhere. Briefly, the capsule was cut longitudinally and rolled open, taking care not to disrupt the architecture of the tissue or to damage the used implant. A portion of the tissue specimen was placed into 4% paraformaldehyde solution (phosphate-buffered at pH 7.2), and stored at 4 °C, for histopathology and two other portions were flash-frozen in liquid nitrogen for drug concentration analysis as well as for drug spatial distribution analysis by MALDI-IMS (vide infra).
Frozen mouse tissue specimens were shipped to Vanderbilt University on dry ice and stored at − 80 °C prior to use. Tissues were removed from the − 80 °C freezer and placed in a − 20 °C cryostat (CM 1900, Leica Biosystems, Buffalo Grove, IL) and sectioned. Tissue samples that had been prepared via removal of the used implant were affixed to the cryostat chuck with optimal cutting temperature (OCT) polymer and were cut on the cryostat into 12 µm thick sections for imaging mass spectrometry and H&E staining.
Tissue samples that still contained the implant in place were embedded in OCT prior to sectioning. In order to minimize the artifactual signal from the TAF powder after sectioning (the act of the cryostat blade cutting through an intact implant distributed residual TAF powder that still remained in the used implant onto the surrounding tissue section), house vacuum was used to remove visible TAF powder, followed by lightly running nitrogen gas over the plate to remove any additional loose powder from the slide.
The tissue sections were thaw-mounted onto indium-tin oxide coated glass slides for imaging (Delta Technologies, Ltd, Loveland, CO). The tissue sections were left to dry for at least 15 min in a desktop vacuum desiccator prior to matrix application. […] For 9AA, four passes were applied at 85 °C in a crisscross pattern, with a 700 mm min^-1 stage velocity, 2 mm track spacing, and 0.15 mL min^-1 flow rate. For DHB the same method was used, except eight passes were applied and the stage velocity was 1300 mm min^-1.
Flash-frozen dermal tissue samples collected adjacent to the TAF implants and sectioned were analyzed with a linear ion trap mass spectrometer equipped with a MALDI source and a nitrogen laser (LTQ XL, Thermo Scientific, Waltham, MA). The structures of compounds of interest are shown in Scheme 1. Targeted MS/MS methods were optimized for each compound using authentic samples as standards, with the final parameters shown in Appendix A under Supplementary Information. Pseudo-selected reaction monitoring mode was used for imaging by isolating precursor ions with a 1 Da window, fragmenting them, and acquiring full product ion mass spectra at each pixel. TFV, TFV-MP, and TFV-DP were analyzed in negative ion mode, while TAF, Metabolite X, and Metabolite Y were analyzed in positive ion mode. In most cases, after imaging, the matrix was removed and the tissue section that had been imaged was H&E stained for better image registration with tissue morphology. Standard images were acquired at either 50 or 100 µm spatial resolution. Reconstructed ion images were generated in ImageQuest software (Thermo Scientific, Waltham, MA) by plotting the intensity of the diagnostic fragment ion or ions as a function of location across the tissue surface.

[2] = rat, in vivo; cited from earlier work
[3] = rapidly converts to TFV; cited from earlier work
[4] = cited from earlier work
HIV-1 [5] = tested on: HIV-1
Method: The BLT hu-mouse model has been used extensively in efficacy studies involving HIV-1 prevention research[54]–[58]. […] The mice were challenged with HIV-1 either rectally or vaginally 6 h post dosing and monitored for infection status for 12 weeks.
The generation of BLT hu-mice was performed as described in Baum et al.[58], and the references contained therein.
Vaginal or rectal challenge with HIV-1 was performed 6 h after dosing and HIV-1 infection status was monitored by quantifying viral RNA concentration in peripheral blood (plasma) at 1, 2, 3, 6, and 12 weeks post challenge as fully described in Baum et al.[58], and the references contained therein.

[6] = Simulation of plasma TFV and PBMC TFV-DP following TAF delivery from implants; design: species or system C57BL/6 J mice; details: dose-dependent
Method: All other parameters were unmodified from Table 2. Our starting hypothesis was that the difference between SQ injection and long-acting SQ delivery via implant would be strictly related to the implant release rate. Once the drug was released from the device, it was hypothesized to be transferred from the SQ pocket to body circulation via the same mechanism and governed by the same parameters as by SQ injection, and therefore the same model was employed.
Compartmental analyses were performed in Phoenix software (version 8.3, Certara, Princeton, NJ) using a published, simple, structural PK model describing the TFV kinetics. IV and SQ data were modeled simultaneously. Due to the destructive nature of the blood sampling, data were modeled using a naïve-pooled algorithm, without inter-animal variability. The resulting systemic parameters, along with the implant in vivo release rates on a per animal basis, were used to co-model (predict) concentration data in mice following during implant dosing.

[7] = type: in vivo, C57BL/6 J mice; details: Day 28, pathologist evaluation, low and high doses
Method: Toxicity was evaluated by clinical observations, cage-side observations (twice daily), and body weight (weekly). Formaldehyde-fixed dermal tissue specimens (one per animal) were paraffin-embedded, sectioned, and H&E stained using established methods (JIT Labs, jit-labs.com). The slides were evaluated for microscopic findings by a certified pathologist (Vet Path Services, Inc., Mason, OH). Histopathology grades were assigned as grade 1 (minimal), grade 2 (mild), grade 3 (moderate), grade 4 (marked), or grade 5 (severe) based on an increasing extent of overall change.

OAT1 = details: in vitro studies; cited from earlier work
OAT3 = details: in vitro studies; cited from earlier work
[8] = Intravenous TAF pharmacokinetic mouse study (plasma, PBMC, tissue homogenate); type: in vivo, C57BL/6 J mice; details: for half-life: C57BL/6 J, mouse, iv, 0.5 mg
Method: C57BL/6 J Mice (9 groups of 4 animals each; 36 mice total) were administered the study product (0.5 mg dose, 0.1 mL) by intravenous (IV) injection. Animals (N = 4) were sacrificed at the following timepoints: Day 1 (1, 3, 6, 12, 24 h), Day 2, 4, 8, and 14. Blood was collected by exsanguination along with select tissue specimens (vide infra).
The isolation of plasma and PBMCs from blood samples was carried out in a laminar flow hood using aseptic techniques, and the entire process was completed in under 45 min to minimize analyte metabolism. Blood was transferred into collection tubes containing sodium citrate (final concentration, 0.4% w/v), diluted using one volume equivalent of 1 × PBS solution, and mixed by inversion. The minimum final volume was 4.0 mL. Prior to the addition of blood samples, Ficoll-Paque media (MilliporeSigma, Burlington, MA, 3.2 mL) was transferred into a 12 mL LeucoSep tube (Greiner, Monroe, NC) and centrifuged at 1000 g for 20 s at room temperature, causing the media to settle just below the porous barrier. The homogenous, diluted blood-PBS mixture was transferred into the prepared LeucoSep tube and centrifuged at 1000 g for 10 min at room temperature, resulting in the formation of three layers above the porous barrier: (A) top layer, consisting of the plasma fraction; (B) middle, interface layer, containing the PBMCs; and (C) thin lower layer, just above the barrier, consisting of Ficoll-Paque media. Layer A (plasma) was transferred to empty 1.5 mL microfuge tubes in 0.5 mL aliquots, and flash-frozen in liquid nitrogen. Layer B (PBMCs) was transferred into an empty 15 mL centrifuge tube and PBS added to the 12 mL mark, followed by gentle inversion mixing. The suspension was centrifuged at 400 g for 15 min, the supernatant removed, and the pellet resuspended in PBS (10 mL) by gentle pipetting. An aliquot (10 µL) was removed from the suspension for cell counting and the remaining sample was centrifuged at 400 g for 15 min. The supernatant was removed without disturbing the cell pellet, which was treated with ice-cold 70% v/v methanol in molecular-grade water (1.0 mL). The mixture was mixed lightly by vortex agitation to lyse the cells, followed by transfer to a 2.0 mL cryovial that was flash-frozen in liquid nitrogen.
Vaginal, rectal, spleen, and thymus tissue samples were collected from sacrificed animals at Day 1 (12, 24 h), Day 4, and 8; rectal tissue samples were not collected at 12 h. The samples were transferred into pre-weighed sample tubes, weighed, and flash-frozen in liquid nitrogen.
(§1) PBMC results were normalized to the number of cells and reported as fmol/10^6 cells or as intracellular concentration based on cell volume, in nM. Tissue results were normalized to sample mass and reported as ng mg^-1 or fmol mg^-1.

[9] = design: method as in PMID 23600365; details: healthy individuals; cited from earlier work
HIV-1 [10] = details: cited from earlier work
[11] = Subdermal TAF implant pharmacokinetic mouse study; type: in vivo; details: low- and high-releasing implants
Text: Two study groups are described here: one low-releasing and one high-releasing implant group. Animals (N = 3 per implant group) were sacrificed at the following timepoints: Day 3, 7, 14, 21, and 28 (15 mice total per implant group).

[12] = Subcutaneous TAF injection pharmacokinetic mouse study; type: in vivo, C57BL/6 J mice; details: C57BL/6 J, PBMCs, 0.5 mg, read-out: PBMC TFV-DP t1/2 (converted)
Method: C57BL/6 J Mice (12 groups of 4 animals each; 48 mice total) were administered the study product (0.5 mg dose, 0.1 mL) described above by subcutaneous (SQ) injection. Animals (N = 4) were sacrificed at the following timepoints: Day 1 (1, 3, 6, 12, 24 h), Day 2, 4, 6, 8, 10, 12, and 14. Blood was collected by exsanguination and processed as described above.
as §1

[13] = oral TAF 6 h before rectal HIV-1 challenge
[14] = oral TAF 6 h before vaginal HIV-1 challenge

SMILES: O=C(O)C[C@@H]1Cc2ccc(OCCCNc3ccccn3)cc2Cc2ccccc21 [SB-265123]
Apparent oral F [2]: exceeding 100%

SMILES: CC(C)OC(=O)[C@H](C)N[P@](=O)(CO[C@H](C)Cn1cnc2c(N)ncnc21)Oc1ccccc1 [TAF, tenofovir alafenamide]
Impurities formed during in vivo implant use (HPLC of retrieved implants): less than 1% | TAF peak area of total peak area (TAF and decomposition products) in retrieved implants (HPLC, irrespective of the implant group): > 98% | Stability in mouse plasma [3]: highly unstable | Efflux transport in the intestine [4]: vulnerable to efflux transport | Protection from rectal HIV-1 acquisition (HIV-1 [5]; oral TAF): fully protective | Protection from vaginal HIV-1 acquisition (HIV-1 [5]; oral TAF): fully protective | ED50 (HIV-1 [5]; [13]): 1.27 µmol | ED90 (HIV-1 [5]; [13]): 1.62 µmol | ED50 (HIV-1 [5]; [14]): 1.17 µmol | ED90 (HIV-1 [5]; [14]): 2.15 µmol | m-value ± SEM (median-effect model) (HIV-1 [5]; rectal): 9.18 ± 1.94 | m-value ± SEM (median-effect model) (HIV-1 [5]; vaginal): 3.60 ± 0.22 | Exposure scaling (apparent bioavailability) from subdermal implants vs SQ or IV injection [6]: 4–5 × | Effect of TAF dose on microscopic appearance of tissues [7]: no effects | Detection by MALDI-IMS in dermal tissue samples during implant TAF delivery [1]: detected | Spatial distribution in dermal tissue sections (MALDI-IMS) [1]: localized close to the implant | MALDI-IMS signal and localization with implant in situ [1]: most abundant signals | Substrate for renal uptake transporter OAT1 (OAT1): not believed to be a substrate | Substrate for renal uptake transporter OAT3 (OAT3): not believed to be a substrate

SMILES: C[C@H](Cn1cnc2c(N)ncnc21)OCP(=O)(O)OP(=O)(O)OP(=O)(O)O [TFV-DP, TFV diphosphate]
half-life ([8]; PBMCs, read-out: PBMC TFV-DP t1/2 (converted)): 41 h | Share of total TFV present as TFV-DP, vaginal tissue ([8]; IV TAF dosing): 5.1% | Median vaginal x(TFV-DP) lower than rectal, spleen, thymus ([8]; IV TAF, depending on the compartment): 4.7–6.7 fold | half-life ([8]; female, rectal tissue, read-out: Terminal half-life in rectal tissue (NCA) (converted)): 26.4 h | half-life ([8]; female, spleen, read-out: Terminal half-life in spleen (NCA) (converted)): 23.3 h | half-life ([8]; female, thymus, read-out: Terminal half-life in thymus (NCA) (converted)): 23.3 h | half-life ([8]; female, vaginal tissue, read-out: Terminal half-life in vaginal tissue (NCA) (converted)): 31.2 h | Duration of TFV-DP concentrations in tissues ([8]; single bolus IV TAF administration): > 8 days | TFV-DP mole fraction x(TFV-DP), vaginal tissue, median (IQR) ([8]; tissue homogenate, IV TAF dosing): 0.051 (0.022–0.080) | Intracellular (PBMC) TFV-DP half-life [9]: 48 h | Detection by MALDI-IMS in dermal tissue samples during implant TAF delivery [1]: detected | Spatial distribution in dermal tissue sections (MALDI-IMS) [1]: distributed homogeneously throughout the samples | MALDI-IMS signal and localization with implant in situ [1]: weak | TFV-DP EC90 (more conservative) (HIV-1 [10]; corrected for TFV-DP loss on cryopreservation): 24 to 48 fmol/10^6 cells | PBMC TFV-DP concentration associated with 90% protection (HIV-1 [10]; post hoc analysis of iPrEX, cryopreserved PBMCs): 16 fmol/10^6 cells | Share of total TFV species present as TFV-DP, dermal tissue adjacent to TAF implants [11]: less than 1% | half-life [12]: 17 h

Second part, led by results:

Detection by MALDI-IMS in dermal tissue samples during implant TAF delivery [1]: detected | Spatial distribution in dermal tissue sections (MALDI-IMS) [1]: localized close to the implant | MALDI-IMS signal and localization with implant in situ [1]: localized close to the implant
SMILES: C[C@H](Cn1cnc2c(N)ncnc21)OC[P@@](=O)(O)N[C@@H](C)C(=O)O [Metabolite X]

Detection by MALDI-IMS in dermal tissue samples during implant TAF delivery [1]: detected | Spatial distribution in dermal tissue sections (MALDI-IMS) [1]: localized close to the implant | MALDI-IMS signal and localization with implant in situ [1]: localized close to the implant
SMILES: CC(C)OC(=O)[C@H](C)N[P@](=O)(O)CO[C@H](C)Cn1cnc2c(N)ncnc21 [Metabolite Y]

Detection by MALDI-IMS in dermal tissue samples during implant TAF delivery [1]: detected | MALDI-IMS signal and localization with implant in situ [1]: weak
SMILES: C[C@H](Cn1cnc2c(N)ncnc21)OCP(=O)(O)OP(=O)(O)O [TFV-MP]
Spatial distribution in dermal tissue sections (MALDI-IMS) [1]: distributed homogeneously throughout the samples
